Patent US11648290B2, “Cartilage-homing peptides” (FRED HUTCHINSON CANCER CENTER, priority 2015, dated 2023)

What was measured:
[1] = system: cartilage (IVD, knee / synovial joints); assay: Whole body autoradiography (WBA) of radiolabeled cartilage homing peptides (Example 21); assay type: in vivo, Female Harlan athymic nude mice
Procedure: This example illustrates peptide homing to cartilage mice 5 minutes to 48 hours after administration of a radiolabeled peptide. Signal from the radiolabeled peptides was found in all types of cartilage at each time point examined. Each peptide was radiolabeled by methylating […] as described in EXAMPLE 2. As such, the peptide may contain methyl or dimethyl lysines and a methylated or dimethylated amino terminus. A dose of 100 nmol radiolabeled peptide was administered via tail vein injection in Female Harlan athymic nude mice, weighing 20-25 g. The experiment was done in duplicate (n=2 animals per group). In some animals, kidneys were ligated to prevent renal filtration of the radiolabeled peptides and extend plasma half-life. Each radiolabeled peptide was allowed to freely circulate within the animal for the described time period before the animals were euthanized and sectioned.
Whole body autoradiography (WBA) sagittal sectioning was performed as follows. […] Sections were allowed to desiccate in a freezer prior to imaging.
For the autoradiography imaging, tape mounted thin sections were freeze dried and radioactive samples were exposed to phophoimager plates for 7 days.

[2] = molecular target: pepsin (Homo sapiens, UniProt P0DJD8); assay: Peptide resistance to pepsin digestion / simulated gastric fluid (RP-HPLC); assay type: in vitro ADME; details: 12.5 ug peptide, 20 ug pepsin, SGF pH 1.05, 30 minutes at 37.5 C
pepsin, sequence (P0DJD8 63-388): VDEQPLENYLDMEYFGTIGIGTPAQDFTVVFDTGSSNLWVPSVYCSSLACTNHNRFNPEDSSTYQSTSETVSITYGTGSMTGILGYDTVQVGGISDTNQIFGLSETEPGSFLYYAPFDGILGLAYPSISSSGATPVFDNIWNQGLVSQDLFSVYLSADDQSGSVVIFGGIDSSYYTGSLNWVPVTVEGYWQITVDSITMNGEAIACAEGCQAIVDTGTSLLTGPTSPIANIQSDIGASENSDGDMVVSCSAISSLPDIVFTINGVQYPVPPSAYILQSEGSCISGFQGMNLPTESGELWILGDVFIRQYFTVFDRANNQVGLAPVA
Procedure: SEQ ID NO: 24 peptide and SEQ ID NO: 111 peptide were suspended in 500 μl of ddH2O at a stock concentration of 2 mg/ml. Reactions were prepared with 12.5 μg peptide and 20 μg pepsin in simulated gastric fluid (pH 1.05) and incubated for 30 minutes at 37.5° C. Reactions were quenched with a final concentration of 100 mM Tris base and 10 mM dithiothreitol (DTT). Reversed phase HPLC (RP-HPLC) was run on samples using an Agilent 1260 HPLC equipped with a C-18 Poroshell 120B column. Sample were analyzed by a gradient method with a mobile phase of Solvent A (water with 0.1% TFA) and Solvent B (acetonitrile with 0.1% TFA). Solvent B was ramped up from 5%-45% of the mobile phase over a period of 10 minutes. Peptides were detected at an absorbance of 214 nm and 280 nm.

[3] = Peptide resistance to reducing agents (10 mM DTT, RP-HPLC); assay type: physicochemical; details: 10 mM DTT in PBS, room temperature, 30 minutes
Procedure: Several peptides were suspended in 500 μl of ddH2O to a stock concentration of 2 mg/ml. Reactions were prepared by adding 12.5 μg peptide from the stock solution to a 10 mM solution of DTT in PBS and allowed to incubate at room temperature for 30 minutes. RP-HPLC was run on samples using an Agilent 1260 HPLC equipped with a C-18 Poroshell 120B column. Samples were analyzed by a gradient method with a mobile phase of Solvent A (water with 0.1% TFA) and Solvent B (acetonitrile with 0.1% TFA). Solvent B was ramped up from 5%-45% of the mobile phase over a period of 10 minutes.
Peptides were fractionated by HPLC and without any further sample prep, 5 μl of the sample was injected into the mass spectrometer at 1 mg/ml using a CTCPAL® autosampler. Alternatively, if peptides were provided as a lyophilized powder, the sample was dissolved in 100% water to a concentration of 1 mg/ml a Millipore Ziptip C18® column was used to desalt the peptides prior to injection for ES-MS. The mass spectrometer was calibrated using 5 pmol of mixture of five standard peptides to achieve a high accuracy of mass determination with less than a 10 ppm error. Confirmation of peptide disulfide bond formation was achieved by analyzing the m/z isotopic distribution and the exact charge. All peptides tested are shown under reducing and non-reducing conditions.

[4] = system: pepsin, trypsin; assay: HPLC after exposure to oxidative, reductive, acidic conditions and proteinases (FIG. 72); assay type: in vitro ADME; details: pH 1 / SGF pH 1.05, 10 mM DTT, 500 U pepsin, 50 U trypsin
Procedure: FIG. 72 illustrates HPLC chromatograms of peptides of SEQ ID NO: 111 and SEQ ID NO: 434 after exposure to a range of conditions including oxidative, reductive, and acidic conditions as well as after exposure to proteinases. FIG. 72A illustrates the HPLC trace of a peptide of SEQ ID NO: 111 under reducing and acidic conditions. FIG. 72B illustrates the HPLC trace of a peptide of SEQ ID NO: 111 under various combinations of reducing agents and proteases including 10 mM DTT in 500 U pepsin, 500 U pepsin, 10 mM DTT in 50 U trypsin, and 50 U trypsin. FIG. 72C illustrates the HPLC trace of a peptide of SEQ ID NO: 434 under various protease conditions including in 500 U pepsin, in 50 U trypsin, non-reducing (NR, oxidized conditions) in simulated gastric fluid (SGF) at pH 1.05, and NR.
FIG. 72 illustrates HPLC chromatograms of peptides of SEQ ID NO: 111 and SEQ ID NO: 434 after exposure to a range of conditions including oxidative, reductive, and acidic conditions as well as after exposure to proteinases. The peptide of SEQ ID NO: 434 is a linearized version of the knottin peptide of SEQ ID NO: 111. The peptide of SEQ ID NO: 434 has the same amino acid sequence as the knottin peptide of SEQ ID NO: 111, but with all cysteines mutated to serines. FIG. 72A illustrates the HPLC trace of a peptide of SEQ ID NO: 111 under reducing and acidic conditions. […]

[5] = Intravenous and oral administration of radiolabeled peptide: plasma, urine, feces; assay type: in vivo, female Harlan athymic nude mice
Procedure: This example describes intravenous and oral administration of peptides of this disclosure, including transit of the intact peptide through the GI tract and to the feces after oral administration. A radiolabeled peptide of SEQ ID NO: 24 was administered intravenously or orally to female Harlan athymic nude mice, 6-8 weeks of age. Radiolabeled peptides of SEQ ID NO: 24 was administered intravenously (IV) at a dose of 4.8 μCi/20 nmol. Radiolabeled peptide of SEQ ID NO: 24 was administered orally (PO) at a dose of 24 μCi/100 nmol. Mice were euthanized at various time points by CO2 asphyxiation and biological fluids were collected, including blood, urine, and feces. Urine was collected be abdominal palpitation immediately before CO2 asphyxiation. Blood was collected by cardiac puncture immediately after CO2 asphyxiation and centrifuged to separate plasma. Feces was collected either before or after CO2 asphyxiation by palpitation of the colon. Samples were analyzed by HPLC to quantify the concentration or dose of intact peptide recovered in plasma, urine, and feces. For HPLC analysis, urine samples were first diluted at a 1:20 ratio in water and plasma samples were diluted at a 1:5 ratio in water. Feces samples were dissolved in Tris buffer, centrifuged to remove the insoluble fraction, and supernatants were diluted at a 1:1 ratio in water.
The delivered dose of ^14C was 4.8 for intravenous administration and 24 μCi for oral administration. Time points examined included 0.08, 0.5, 1, 3, 8, 24, 48 hours and three mice were examined per time point. […] The delivered dose of ^14C was 4.8 for intravenous administration and 24 μCi for oral administration. Time points examined included 0.08, 0.5, 1, 3, 8, 24, 48 hours and three mice were examined per time point. […] The delivered dose of ^14C was 24 μCi for oral administration. Time points examined included 0.5, 1, and 3 hours. […] The intact peptide was eluted near 6 minutes, whereas cleaved fragments—such as the N-terminal Gly residue—were eluted near 1 minute.
(§1) The delivered dose of ^14C was 4.8 μCi for intravenous administration and 24 μCi for oral administration. Time points examined included 0.08, 0.5, 1, 3, 8, 24, 48 hours and three mice were examined per time point. […] The delivered dose of ^14C was 24 μCi for oral administration. Time points examined included 0.5, 1, 3, 8, 24, and 48 hours.
as §1, with “included 3” for “included 0.5, 1, 3, 8, 24,”, “and 8” for “and 48”

[6] = system: cartilage; details: 3 hours, ligated kidneys
Procedure: This example describes a dosing scheme for administering knottin peptides to mice in conjunction with kidney ligation. Different dosages of the peptides were administered to Female Harlan athymic nude mice, weighing 20 g-25 g, via tail vein injection (n=2 mice per knottin). The experiment was done in duplicates. The kidneys were ligated to prevent renal filtration of the peptides. Each peptide was radiolabeled by methylating lysines and the N-terminus, so the actual binding agent may contain methyl or dimethyl lysine(s) and a methylated or dimethylated amino terminus.
A target dosage of 50-100 nmol of each peptide carrying 10-25 uCi of ^14C was administered to Female Harlan athymic nude mice while anesthetized. Each peptide was allowed to freely circulate within the animal before the animals were euthanized and sectioned.
This example illustrates peptide homing to cartilage of mice with kidneys that were ligated prior to peptide administration. At the end of the dosing period in EXAMPLE 3, mice were frozen in a hexane/dry ice bath and then frozen in a block of carboxymethylcellulose. […] Thin, frozen sections of animal including imaging of tissues such as brain, tumor, liver, kidney, lung, heart, spleen, pancreas, muscle, adipose, gall bladder, upper gastrointestinal tract, lower gastrointestinal tract, bone, bone marrow, reproductive track, eye, cartilage, stomach, skin, spinal cord, bladder, salivary gland, and other types of tissues were obtained with a microtome, allowed to desiccate in a freezer, and exposed to phosphoimager plates for about ten days.
These plates were developed, and the signal (densitometry) from each organ was normalized to the signal found in the heart blood of each animal. A signal in tissue darker than the signal expected from blood in that tissue indicates peptide accumulation in a region, tissue, structure or cell. For instance, the cartilage is avascular and contains minute amounts of blood. A ratio of at least 170% signal in the cartilage versus heart ventricle was chosen as a reference level for significant targeting to cartilage, which also correlated with clear accumulation in cartilaginous tissues in the images of the slices.
The SEQ ID NO: 24 peptide was radiolabeled as in Example 3 and 100 nmol of peptide was injected into a mouse with intact kidneys. FIG. 5 illustrates the retention of and the tissue distribution in the cartilage of a peptide of SEQ ID NO: 24, 24 hours after administration.

[7] = 0.08 hours after 100 nmol radiolabeled peptide
[8] = 0.5 hours after 100 nmol radiolabeled peptide
[9] = 1 hour after 100 nmol radiolabeled peptide
[10] = 3 hours after 100 nmol radiolabeled peptide
[11] = 8 hours after 100 nmol radiolabeled peptide
[12] = 24 hours after 100 nmol radiolabeled peptide
[13] = 48 hours after 100 nmol radiolabeled peptide

## GSGVPINVRCRGSRDCLDPCRRAGMRFGRCINSRCHCTP [SEQ ID NO: 111]
[1]; 100 nmol
  Time at which the signal to background ratio in IVD peaked: 24 h
  Time at which the signal to background ratio in knee joints peaked: 8 h
[1]; 100 nmol, 5 minutes-48 hours
  Presence of radiolabeled peptide in IVD and synovial joints: observed in the intervertebral disc (IVD) and synovial joints at all time points (5 minutes-48 hours)
[1]; [7]
  Signal in IVD as a percentage of the blood: 164%
  Signal in knee joints as a percentage of the blood: 404%
[1]; [8]
  Signal in IVD as a percentage of the blood: 369%
  Signal in knee joints as a percentage of the blood: 510%
[1]; [9]
  Signal in IVD as a percentage of the blood: 961%
  Signal in knee joints as a percentage of the blood: 1114%
[1]; [10]
  Signal in IVD as a percentage of the blood: 3213%
  Signal in knee joints as a percentage of the blood: 4059%
[1]; [11]
  Signal in IVD as a percentage of the blood: 3777%
  Signal in knee joints as a percentage of the blood: 4990%
[1]; [12]
  Signal in IVD as a percentage of the blood: 5391%
  Signal in knee joints as a percentage of the blood: 2137%
[1]; [13]
  Signal in IVD as a percentage of the blood: 3320%
  Signal in knee joints as a percentage of the blood: 843%
[1]; IVD, 3 hours
  Signal of folded knotted peptide compared to linearized peptide of SEQ ID NO: 434: ~20 fold
[2]
  Resistance to degradation in DTT, SGF, SGF and pepsin, SPTD solutions: similarly highly resistant in the various conditions tested
[3]
  HPLC peaks under non-reducing versus reducing conditions (resistance to reduction by DTT): Peaks showing the peptide under non-reducing conditions and reducing conditions are fully overlapping
[4]
  Resistance to degradation (FIG. 72): highly resistant to degradation at pH 1, reducing agents, trypsin, and pepsin

## GSGVPINVRSRGSRDSLDPSRRAGMRGRSINSRSHSTP [SEQ ID NO: 434, reference compound]
[1]; 100 nmol radiolabeled peptide
  Cartilage homing (qualitative, WBA): homed to cartilage to a much lesser extent than the folded knotted peptide
[1]; 3 hr Intact Kidneys, 100 nmol
  Signal in IVD as a percentage of signal in blood: 177%
[1]; 3 hr Ligated Kidneys, 100 nmol
  Signal in IVD as a percentage of signal in blood: 117%
[1]; 24 hr Intact Kidneys, 100 nmol
  Signal in IVD as a percentage of signal in blood: 104%
[4]
  Resistance to degradation (FIG. 72): more susceptible to degradation at these different conditions

## GSGVPINVKCRGSRDCLDPCKKAGMRFGKCINSKCHCTP [SEQ ID NO: 24]
[1]; [10]
  Signal in IVD as a percentage of the blood: 1779%
[1]; [12]
  Signal in IVD as a percentage of the blood: 833%
[2]
  Resistance to degradation in DTT, SGF, SGF and pepsin, SPTD solutions: highly resistant to degradation
[3]
  HPLC peaks under non-reducing versus reducing conditions (resistance to reduction by DTT): Peaks showing the peptide under non-reducing conditions and reducing conditions are overlapping
[5]; IV 20 nmol / PO 100 nmol
  Detection of radioactive signal from the dosed peptide in plasma: at least 50 hours
[5]; IV administration, 20 nmol
  Plasma concentration as percent of the dose: up to 10 % of the dose
[5]; PO administration, 100 nmol
  Plasma concentration as percent of the dose: up to 1 % of the dose
[5]; oral dosing 100 nmol, 3 and 8 hours
  Intact peptide in feces: detected in feces after oral dosing
[5]; oral gavage 100 nmol, 0.5, 1, 3 hours
  Nature of radioactivity detected in plasma (HPLC / scintillation): nearly some of all of the radioactivity detected in plasma was due to fragments of the administered peptide
[6]
  Cartilage types reached (FIGS. 3-4): homing of SEQ ID NO: 24 to hyaline cartilage such as articular cartilage and physeal cartilage, as well as fibrocartilage
